For test [1], the system named is weeds. The experiment in a line: Glasshouse weed control, HST inhibitors alone and with A22, post-emergence. It is filed as in vivo. As to conditions: 14 DAT, single replicate; for pest or weed control at 15.625 g/ha / pest or weed control at 62.5 g/ha / pest or weed control at 250 g/ha: 336 h, read-out: % control score, Obs. The gist of the method: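 Weeds grown in glasshouse trays (24-27 C day, 18-21 C night, ~15 h photoperiod) and track-sprayed in 0.2% X77 at […], pre-emergence or post-emergence at about 7-12 d. HPPD inhibitor A22 applied at 2 g/ha alone or mixed with HST herbicides. Damage scored 0–100% at 14 DAT; synergy calculated by Colby formula.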

Test [2] relates to weeds. Kind of test: Glasshouse weed control by HST/HPPD (mesotrione) mixtures, post-emergence. It counts as in vivo. As to conditions: 14 DAT; for % damage, mesotrione alone: post-emergence, mesotrione 1 g/ha. As to the method:
Weed seeds are planted out in trays containing suitable soil (for example 50% peat, 50% John Innes soil no 3) and grown in the glass house conditions under 24-27° C. day; 18-21° C. night and approximately a 14 h (or longer in UK summer) photoperiod. Humidity is ˜65% and light levels up to 2000 μmol/m^2 at bench level. Trays are sprayed with test chemicals dissolved in water with 0.2-0.25% X-77 surfactant and sprayed from a boom on a suitable track sprayer moving at about 2 mph in a suitable track sprayer (for example a DeVries spray chamber with the nozzle about 2 inches from the plant tops). Spray volume is suitably 500-1000 l/ha. Sprays are carried out both pre-emergence and over small plants at about 7-12 d post-emergence
Plants are assessed 14 DAT and herbicidal damage is scored on a scale from 0 to 100%. The HST inhibitor compound 2.30 (designated compound A in table 16 and 17), haloxydine (compound 1.1) and compound 2.13 (designated compound AE in tables 16 and 17) are sprayed at rates between 0 and 500 g/ha.

Setting [3] is: Digitaria sanguinalis, DIGSA, 15.625 g/ha alone.
Setting [4] is: Digitaria sanguinalis, DIGSA, 62.5 g/ha alone.
Where [5] appears, read: Digitaria sanguinalis, DIGSA, 250 g/ha alone.
Where [6] appears, read: Echinochloa crus-galli, ECHCG, 15.625 g/ha alone.
[7] abbreviates: Echinochloa crus-galli, ECHCG, 62.5 g/ha alone.
Setting [8] is: Echinochloa crus-galli, ECHCG, 250 g/ha alone.
The mark [9] stands for this setting: Setaria faberi, SETFA, 15.625 g/ha alone.
The mark [10] stands for this setting: Setaria faberi, SETFA, 62.5 g/ha alone.
The mark [11] stands for this setting: Setaria faberi, SETFA, 250 g/ha alone.

Like-named read-outs stand apart in the source and are kept apart here.

Take `O=c1c(-c2c(F)ccc(F)c2Cl)c(O)c2nccnc2n1CC(F)F` [Compound 2.3]: the “% control score, Obs” value in test [1] (BRAPL, 15.625 g/ha alone) turned out to be 20%; in test [1] (BRAPL, 62.5 g/ha alone), 50%; in test [1] (BRAPL, 250 g/ha alone), 70%; in test [1] (DIGSA, 15.625 g/ha alone), 2%; in test [1] (DIGSA, 62.5 g/ha alone), 35%; in test [1] (DIGSA, 250 g/ha alone) it was 45%. For the same compound, the “% control score, Obs” value came to 5% in test [1] (ECHCG, 15.625 g/ha alone); 30% in test [1] (ECHCG, 62.5 g/ha alone); 40% in test [1] (ECHCG, 250 g/ha alone); 2% in test [1] (PANMI, 15.625 g/ha alone); 55% in test [1] (PANMI, 62.5 g/ha alone); 65% in test [1] (PANMI, 250 g/ha alone). Besides, the “% control score, Obs” value in test [1] (SETFA, 15.625 g/ha alone) came to 5%; in test [1] (SETFA, 62.5 g/ha alone) it was 40%; in test [1] (SETFA, 250 g/ha alone), 60%; in test [1] (SIDSP, 15.625 g/ha alone) it was 10%; in test [1] (SIDSP, 62.5 g/ha alone), 40%; in test [1] (SIDSP, 250 g/ha alone), 55%.
With `O=c1c(-c2c(Cl)ccc(Cl)c2Cl)c(O)c2nccnc2n1CC(F)F` [Compound 2.14], the pest or weed control at 15.625 g/ha was 30% in test [1] (BRAPL, 15.625 g/ha alone); 40% in test [1] (PANMI, 15.625 g/ha alone); 15% in test [1] (SIDSP, 15.625 g/ha alone); 10% in test [1] (setting [3]); 30% in test [1] (setting [6]); 25% in test [1] (setting [9]). Further, the pest or weed control at 62.5 g/ha in test [1] (BRAPL, 62.5 g/ha alone) stood at 60%; in test [1] (PANMI, 62.5 g/ha alone) it was 60%; in test [1] (SIDSP, 62.5 g/ha alone) it was 30%; in test [1] (setting [4]) it was 20%; in test [1] (setting [7]), 50%; in test [1] (setting [10]), 60%. In addition, the pest or weed control at 250 g/ha is 60% in test [1] (BRAPL, 250 g/ha alone); 90% in test [1] (PANMI, 250 g/ha alone); 50% in test [1] (SIDSP, 250 g/ha alone); 20% in test [1] (setting [5]); 65% in test [1] (setting [8]); 70% in test [1] (setting [11]).
As for `O=c1c(-c2cc(C(F)(F)F)ccc2Cl)c(O)c2nccnc2n1CC(F)F` [Compound 2.9], the pest or weed control at 15.625 g/ha in test [1] (BRAPL, 15.625 g/ha alone) stood at 15%; in test [1] (PANMI, 15.625 g/ha alone), 30%; in test [1] (SIDSP, 15.625 g/ha alone) it was 10%; in test [1] (setting [3]), 2%; in test [1] (setting [6]) it was 20%; in test [1] (setting [9]) it was 20%. For the same compound, the pest or weed control at 62.5 g/ha was 55% in test [1] (BRAPL, 62.5 g/ha alone); 50% in test [1] (PANMI, 62.5 g/ha alone); 20% in test [1] (SIDSP, 62.5 g/ha alone); 10% in test [1] (setting [4]); 40% in test [1] (setting [7]); 50% in test [1] (setting [10]). For the same compound, the pest or weed control at 250 g/ha amounted to 70% in test [1] (BRAPL, 250 g/ha alone); 70% in test [1] (PANMI, 250 g/ha alone); 20% in test [1] (SIDSP, 250 g/ha alone); 15% in test [1] (setting [5]); 70% in test [1] (setting [8]); 65% in test [1] (setting [11]).
On to `CS(=O)(=O)c1ccc(C(=O)C2C(=O)CCCC2=O)c([N+](=O)[O-])c1` [Mesotrione, mesotrione, reference compound], for which the damage in test [2] (1 g/ha, pre- and post-emergence sprays) is recorded as under 10%. Also, the “% damage, mesotrione alone” value in test [2] (ALOMY) amounted to 0%; in test [2] (ECHCG), 8%; in test [2] (SETFA), 0%.
`O=c1c(-c2c(F)ccc(Br)c2Cl)c(O)c2cccnc2n1CC(F)F` [Compound 2.15]: the pest or weed control at 15.625 g/ha was found to be 0% in test [1] (BRAPL, 15.625 g/ha alone); 0% in test [1] (PANMI, 15.625 g/ha alone); 0% in test [1] (SIDSP, 15.625 g/ha alone); 0% in test [1] (setting [3]); 0% in test [1] (setting [6]); 0% in test [1] (setting [9]). In addition, the pest or weed control at 62.5 g/ha in test [1] (BRAPL, 62.5 g/ha alone) was 0%; in test [1] (PANMI, 62.5 g/ha alone), 0%; in test [1] (SIDSP, 62.5 g/ha alone), 10%; in test [1] (setting [4]), 0%; in test [1] (setting [7]) it was 0%; in test [1] (setting [10]) it was 0%. The pest or weed control at 250 g/ha in test [1] (BRAPL, 250 g/ha alone) came to 5%; in test [1] (PANMI, 250 g/ha alone) it was 0%; in test [1] (SIDSP, 250 g/ha alone), 15%; in test [1] (setting [5]), 0%; in test [1] (setting [8]), 2%; in test [1] (setting [11]), 2%.
As to `O=c1c(-c2c(F)ccc(Br)c2Cl)c(O)c2nccnc2n1CC(F)F` [Compound 2.8], the pest or weed control at 15.625 g/ha in test [1] (BRAPL, 15.625 g/ha alone) was 20%; in test [1] (PANMI, 15.625 g/ha alone), 40%; in test [1] (SIDSP, 15.625 g/ha alone) it was 30%; in test [1] (setting [3]), 5%; in test [1] (setting [6]) it was 10%; in test [1] (setting [9]) it was 5%. Moreover, the pest or weed control at 62.5 g/ha in test [1] (BRAPL, 62.5 g/ha alone) was found to be 55%; in test [1] (PANMI, 62.5 g/ha alone), 50%; in test [1] (SIDSP, 62.5 g/ha alone), 45%; in test [1] (setting [4]), 20%; in test [1] (setting [7]), 40%; in test [1] (setting [10]), 65%. For the same compound, the pest or weed control at 250 g/ha was 85% in test [1] (BRAPL, 250 g/ha alone); 80% in test [1] (PANMI, 250 g/ha alone); 50% in test [1] (SIDSP, 250 g/ha alone); 60% in test [1] (setting [5]); 65% in test [1] (setting [8]); 60% in test [1] (setting [11]).

The values are drawn from US20110173718A1, “HERBICIDE TOLERANT PLANTS” (SYNGENTA CROP PROTECTION, INC., priority 2008, published 2011).
